{"source": "PubChem BioAssay AID1963985", "about": "(Molecular Pharmacology Branch, DTP, NCI, 2024);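 note: spheroids exposed to agents for seven days before readout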;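 for viability, T/C: percent of vehicle DMSO control viability so 100% = untreated growth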", "tested_on": "252836-082-R-J2-PDC tumor spheroids, viability", "experiment": "Anticancer human tumor 252836-082-R-J2-PDC patient-derived head and neck squamous cell carcinoma cell line growth inhibition [PI3K]", "conditions": "spheroids with HUVEC and MSC; for viability, T/C: stronger effect = lower value", "in_short": "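Stroma-containing spheroids: tumor line, pooled-donor HUVEC, hMSC. Treatments: targeted agents with PI3K inhibitors. Dosing: clinically relevant, half-log spacing, 10 microM ceiling without known Cmax. Read-out: cell viability.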", "key": {"[1]": {"conditions": "curve of first compound, second compound 0.0316 µM"}, "[2]": {"conditions": "curve of first compound, second compound 0.1 µM"}, "[3]": {"conditions": "curve of first compound, second compound 0.316 µM"}, "[4]": {"conditions": "curve of first compound, second compound 1 µM"}, "[5]": {"conditions": "second compound 0.0316 µM, first compound 0.0316 µM"}, "[6]": {"conditions": "second compound 0.0316 µM, first compound 0.1 µM"}, "[7]": {"conditions": "second compound 0.0316 µM, first compound 0.316 µM"}, "[8]": {"conditions": "second compound 0.0316 µM, first compound 1 µM"}, "[9]": {"conditions": "second compound 0.0316 µM, first compound 3.16 µM"}, "[10]": {"conditions": "second compound 0.0316 µM, first compound 10 µM"}, "[11]": {"conditions": "second compound 0.1 µM, first compound 0.0316 µM"}, "[12]": {"conditions": "second compound 0.1 µM, first compound 0.1 µM"}, "[13]": {"conditions": "second compound 0.1 µM, first compound 0.316 µM"}, "[14]": {"conditions": "second compound 0.1 µM, first compound 1 µM"}, "[15]": {"conditions": "second compound 0.1 µM, first compound 3.16 µM"}, "[16]": {"conditions": "second compound 0.1 µM, first compound 10 µM"}, "[17]": {"conditions": "second compound 0.316 µM, first compound 0.0316 µM"}, "[18]": {"conditions": "second compound 0.316 µM, first compound 0.1 µM"}, "[19]": {"conditions": "second compound 0.316 µM, first compound 0.316 µM"}, "[20]": {"conditions": "second compound 0.316 µM, first compound 1 µM"}, "[21]": {"conditions": "second compound 0.316 µM, first compound 3.16 µM"}, "[22]": {"conditions": "second compound 0.316 µM, first compound 10 µM"}, "[23]": {"conditions": "second compound 1 µM, first compound 0.0316 µM"}, "[24]": {"conditions": "second compound 1 µM, first compound 0.1 µM"}, "[25]": {"conditions": "second compound 1 µM, first compound 0.316 µM"}, "[26]": {"conditions": "second compound 1 µM, first compound 1 µM"}, "[27]": {"conditions": "second compound 1 µM, first compound 3.16 µM"}, "[28]": {"conditions": "second compound 1 µM, first compound 10 µM"}}}
{"smiles": "CC(C)n1nc(-c2ccc3oc(N)nc3c2)c2c(N)ncnc21", "values": [{"measurement": "viability, T/C", "setting": "compound 0.000316 µM", "result": "93.7% [middle of 4 runs]"}, {"measurement": "viability, T/C", "setting": "compound 0.001 µM", "result": "91.8% [middle of 4 runs]"}, {"measurement": "viability, T/C", "setting": "compound 0.00316 µM", "result": "87.4% [middle of 4 runs]"}, {"measurement": "viability, T/C", "setting": "compound 0.01 µM", "result": "80.9% [middle of 4 runs]"}, {"measurement": "viability, T/C", "setting": "compound 0.0316 µM", "result": "53.5% [middle of 4 runs]"}, {"measurement": "viability, T/C", "setting": "compound 0.1 µM", "result": "23% [middle of 4 runs]"}, {"measurement": "IC50", "setting": "curve of compound", "result": "36.6 nM [middle of 4 runs]"}]}
{"smiles": "C#Cc1c(F)ccc2cc(O)cc(-c3ncc4c(N5CC6CCC(C5)N6)nc(OCC56CCCN5CC(F)C6)nc4c3F)c12", "note": "(stereo unspecified) + COc1c(OCCCN2CCOCC2)ccc2c3n(c(=NC(=O)c4cnc(N)nc4)nc12)CCN3", "values": [{"measurement": "IC50", "setting": "curve of first compound, second compound 0.00316 µM", "result": "> 10", "unit": "µM"}, {"measurement": "IC50", "setting": "curve of first compound, second compound 0.01 µM", "result": "> 10", "unit": "µM"}, {"measurement": "IC50", "setting": "[1]", "result": 3.8, "unit": "µM"}, {"measurement": "IC50", "setting": "[2]", "result": "< 0.0316", "unit": "µM"}, {"measurement": "IC50", "setting": "[3]", "result": "< 0.0316", "unit": "µM"}, {"measurement": "IC50", "setting": "[4]", "result": "< 0.0316", "unit": "µM"}, {"measurement": "viability, T/C", "setting": "second compound 0.00316 µM, first compound 0.0316 µM", "result": 75.2, "unit": "%"}, {"measurement": "viability, T/C", "setting": "second compound 0.00316 µM, first compound 0.1 µM", "result": 79.9, "unit": "%"}, {"measurement": "viability, T/C", "setting": "second compound 0.00316 µM, first compound 0.316 µM", "result": 105, "unit": "%"}, {"measurement": "viability, T/C", "setting": "second compound 0.00316 µM, first compound 1 µM", "result": 76.8, "unit": "%"}, {"measurement": "viability, T/C", "setting": "second compound 0.00316 µM, first compound 3.16 µM", "result": 72.5, "unit": "%"}, {"measurement": "viability, T/C", "setting": "second compound 0.00316 µM, first compound 10 µM", "result": 67, "unit": "%"}, {"measurement": "viability, T/C", "setting": "second compound 0.01 µM, first compound 0.0316 µM", "result": 76.5, "unit": "%"}, {"measurement": "viability, T/C", "setting": "second compound 0.01 µM, first compound 0.1 µM", "result": 76.8, "unit": "%"}, {"measurement": "viability, T/C", "setting": "second compound 0.01 µM, first compound 0.316 µM", "result": 72.2, "unit": "%"}, {"measurement": "viability, T/C", "setting": "second compound 0.01 µM, first compound 1 µM", "result": 70, "unit": "%"}, {"measurement": "viability, T/C", "setting": "second compound 0.01 µM, first compound 3.16 µM", "result": 60.2, "unit": "%"}, {"measurement": "viability, T/C", "setting": "second compound 0.01 µM, first compound 10 µM", "result": 53.2, "unit": "%"}, {"measurement": "viability, T/C", "setting": "[5]", "result": 53.5, "unit": "%"}, {"measurement": "viability, T/C", "setting": "[6]", "result": 62, "unit": "%"}, {"measurement": "viability, T/C", "setting": "[7]", "result": 53.7, "unit": "%"}, {"measurement": "viability, T/C", "setting": "[8]", "result": 57.2, "unit": "%"}, {"measurement": "viability, T/C", "setting": "[9]", "result": 52.7, "unit": "%"}, {"measurement": "viability, T/C", "setting": "[10]", "result": 34.9, "unit": "%"}, {"measurement": "viability, T/C", "setting": "[11]", "result": 40.4, "unit": "%"}, {"measurement": "viability, T/C", "setting": "[12]", "result": 37.9, "unit": "%"}, {"measurement": "viability, T/C", "setting": "[13]", "result": 36.5, "unit": "%"}, {"measurement": "viability, T/C", "setting": "[14]", "result": 32.8, "unit": "%"}, {"measurement": "viability, T/C", "setting": "[15]", "result": 37.6, "unit": "%"}, {"measurement": "viability, T/C", "setting": "[16]", "result": 18.4, "unit": "%"}, {"measurement": "viability, T/C", "setting": "[17]", "result": 16.9, "unit": "%"}, {"measurement": "viability, T/C", "setting": "[18]", "result": 15.7, "unit": "%"}, {"measurement": "viability, T/C", "setting": "[19]", "result": 13.2, "unit": "%"}, {"measurement": "viability, T/C", "setting": "[20]", "result": 15.3, "unit": "%"}, {"measurement": "viability, T/C", "setting": "[21]", "result": 12.9, "unit": "%"}, {"measurement": "viability, T/C", "setting": "[22]", "result": 4.25, "unit": "%"}, {"measurement": "viability, T/C", "setting": "[23]", "result": 4.39, "unit": "%"}, {"measurement": "viability, T/C", "setting": "[24]", "result": 4.93, "unit": "%"}, {"measurement": "viability, T/C", "setting": "[25]", "result": 4.55, "unit": "%"}, {"measurement": "viability, T/C", "setting": "[26]", "result": 4.71, "unit": "%"}, {"measurement": "viability, T/C", "setting": "[27]", "result": 2.91, "unit": "%"}, {"measurement": "viability, T/C", "setting": "[28]", "result": 0.25, "unit": "%"}]}
{"smiles": "Cn1nccc1Nc1nccc(-c2ccn(C(CO)c3ccc(Cl)c(F)c3)c(=O)c2)n1", "note": "(stereo unspecified) + Cc1nc(NC(=O)N2CCCC2C(N)=O)sc1-c1ccnc(C(C)(C)C(F)(F)F)c1", "values": [{"measurement": "IC50", "setting": "[1]", "result": "> 10", "unit": "µM"}, {"measurement": "IC50", "setting": "[2]", "result": "> 10", "unit": "µM"}, {"measurement": "IC50", "setting": "[3]", "result": "> 10", "unit": "µM"}, {"measurement": "IC50", "setting": "[4]", "result": 7.54, "unit": "µM"}, {"measurement": "IC50", "setting": "curve of first compound, second compound 3.16 µM", "result": "< 0.0316", "unit": "µM"}, {"measurement": "IC50", "setting": "curve of first compound, second compound 10 µM", "result": "< 0.0316", "unit": "µM"}, {"measurement": "viability, T/C", "setting": "[5]", "result": 87, "unit": "%"}, {"measurement": "viability, T/C", "setting": "[6]", "result": 91, "unit": "%"}, {"measurement": "viability, T/C", "setting": "[7]", "result": 91, "unit": "%"}, {"measurement": "viability, T/C", "setting": "[8]", "result": 97.9, "unit": "%"}, {"measurement": "viability, T/C", "setting": "[9]", "result": 104, "unit": "%"}, {"measurement": "viability, T/C", "setting": "[10]", "result": 66, "unit": "%"}, {"measurement": "viability, T/C", "setting": "[11]", "result": 87.4, "unit": "%"}, {"measurement": "viability, T/C", "setting": "[12]", "result": 85.7, "unit": "%"}, {"measurement": "viability, T/C", "setting": "[13]", "result": 79.8, "unit": "%"}, {"measurement": "viability, T/C", "setting": "[14]", "result": 90.6, "unit": "%"}, {"measurement": "viability, T/C", "setting": "[15]", "result": 81.3, "unit": "%"}, {"measurement": "viability, T/C", "setting": "[16]", "result": 62.4, "unit": "%"}, {"measurement": "viability, T/C", "setting": "[17]", "result": 74.7, "unit": "%"}, {"measurement": "viability, T/C", "setting": "[18]", "result": 66.6, "unit": "%"}, {"measurement": "viability, T/C", "setting": "[19]", "result": 81.7, "unit": "%"}, {"measurement": "viability, T/C", "setting": "[20]", "result": 72.8, "unit": "%"}, {"measurement": "viability, T/C", "setting": "[21]", "result": 79.4, "unit": "%"}, {"measurement": "viability, T/C", "setting": "[22]", "result": 57.6, "unit": "%"}, {"measurement": "viability, T/C", "setting": "[23]", "result": 70.8, "unit": "%"}, {"measurement": "viability, T/C", "setting": "[24]", "result": 61.9, "unit": "%"}, {"measurement": "viability, T/C", "setting": "[25]", "result": 63.2, "unit": "%"}, {"measurement": "viability, T/C", "setting": "[26]", "result": 64.6, "unit": "%"}, {"measurement": "viability, T/C", "setting": "[27]", "result": 58, "unit": "%"}, {"measurement": "viability, T/C", "setting": "[28]", "result": 47.3, "unit": "%"}, {"measurement": "viability, T/C", "setting": "second compound 3.16 µM, first compound 0.0316 µM", "result": 42.2, "unit": "%"}, {"measurement": "viability, T/C", "setting": "second compound 3.16 µM, first compound 0.1 µM", "result": 46.1, "unit": "%"}, {"measurement": "viability, T/C", "setting": "second compound 3.16 µM, first compound 0.316 µM", "result": 56.9, "unit": "%"}, {"measurement": "viability, T/C", "setting": "second compound 3.16 µM, first compound 1 µM", "result": 45, "unit": "%"}, {"measurement": "viability, T/C", "setting": "second compound 3.16 µM, first compound 3.16 µM", "result": 41.9, "unit": "%"}, {"measurement": "viability, T/C", "setting": "second compound 3.16 µM, first compound 10 µM", "result": 33.5, "unit": "%"}, {"measurement": "viability, T/C", "setting": "second compound 10 µM, first compound 0.0316 µM", "result": 34.4, "unit": "%"}, {"measurement": "viability, T/C", "setting": "second compound 10 µM, first compound 0.1 µM", "result": 37.2, "unit": "%"}, {"measurement": "viability, T/C", "setting": "second compound 10 µM, first compound 0.316 µM", "result": 34.3, "unit": "%"}, {"measurement": "viability, T/C", "setting": "second compound 10 µM, first compound 1 µM", "result": 23.6, "unit": "%"}, {"measurement": "viability, T/C", "setting": "second compound 10 µM, first compound 3.16 µM", "result": 24.5, "unit": "%"}, {"measurement": "viability, T/C", "setting": "second compound 10 µM, first compound 10 µM", "result": 11.8, "unit": "%"}]}
